According to US20250195463A1, “ORGANOMETALLIC COMPLEX, CONTROLLED-RELEASE MULTI-FUNCTIONAL DRUG, PHARMACEUTICAL COMPOSITION, PROCESSES FOR THE PREPARATION THEREOF AND THEIR USE” (FACULDADE DE CIÊNCIAS DA UNIVERSIDADE DE LISBOA, priority 2022, published 2025):

What was measured:
[1] = Stability in organic medium (dimethyl sulfoxide) by UV-Vis spectroscopy; type: physicochemical; conditions: for Relative variation of the maximum absorbance of the π→π* transitions: band 289-300 nm (λmax in column head); for Relative variation of the maximum absorbance of the charge transfer bands: band 357-425 nm (λmax in column head)
Protocol: (§1) The stability of the complexes 4-11 in organic and aqueous media was evaluated over 24 h by UV-Vis spectroscopy at room temperature, in dark, on a Jasco V-660 spectrometer using quartz cuvettes (1 cm optical path length). The electronic spectra (270-900 nm) were acquired at regular periods of time (0 h, 0.25 h, 0.5 h, 0.75 h, 1 h, 2 h, 3 h, 4 h, 5 h, 6 h, 24 h) for solutions of 100% dimethyl sulfoxide (complexes 4-11) and 5% dimethyl sulfoxide/95% Dulbecco's Modified Eagle Medium (complexes 4, 5 and 8-11) or 10% dimethyl sulfoxide/90% Dulbecco's Modified Eagle Medium (complexes 6 and 7) at concentrations ranging from 7.0×10^-5 M to 3.0×10^-4 M.

MDA-MB-231 (FGFR−) = test: MTT cytotoxicity assay; conditions: MDA-MB-231
Protocol: By way of example, the in vitro cytotoxicity of the conjugate RuPC1, complex 4 and peptide P2 was determined in four human breast cancer cell lines with different levels of expression of the receptor FGFR, namely MDA-MB-231 (FGFR−), MCF-7 (FGFR−), SK-BR-3 (FGFR+), and MDA-MB-134-VI (FGFR+). The cytotoxicity of RuPC1 was also determined in the stated cell lines at controlled pH 6.8 and 7.4. The cytotoxicity of the complexes 5, 8, 9, and the reference complex (2,2′-bipyridyl)(triphenylphosphane)(f-cyclopentadienyl)ruthenium(II) trifluoromethanesulfonate, [RuCp(PPh3)(bipy)][CF3SO3] (TM34) was only determined in the cell line MDA-MB-231. All the cell lines were from the American Type Culture Collection (ATCC) and were cultured in Dulbecco's Modified Eagle Medium+Glutamax-I (Gibco) supplemented with 10% fetal bovine serum (FBS) and 1% antibiotics, excepting the MDA-MB-134-VI for which it was used the double amount of FBS. The cell cultures were kept in an incubator Heraeus at 37° C. under humidified atmosphere at 5% CO2. The cell viability was evaluated resorting to the MTT ([3-(4,5-dimethylthiazol-2-yl)-2,5-diphenyltetrazolium bromide]) colorimetric assay, which is based on the reduction of the tetrazolium salt to purple formazan by mitochondrial dehydrogenases in metabolically active cells. For the assays, the cells were seeded in 96-well plates (2×10^4 to 3×10^4 cells/200 μL) and allowed to adhere overnight. The compounds were first dissolved in dimethyl sulfoxide to obtain 10 mM stock solutions, further used to prepare the working solutions, at 0.1 to 100 μM, by dilution in the cell culture medium. Alternatively, for the assays at controlled pH 6.8 and 7.4, RuPC1 was first dissolved in a solution of 15% dimethyl sulfoxide/85% phosphate buffer (10 mM in water) to obtain 1.5 mM stock solutions further incubated for 48 hours at both pH values prior to be used to prepare the working solutions, at 0.1 to 50 μM, by dilution in the cell culture medium. In both cases, after continuous exposure of the cells to the compounds for 48 h at 37° C., the medium was removed and the cells were incubated with 200 μL of MTT solution (0.5 mg/mL) for 3 h. Then, the solution was discarded and the purple formazan formed by the viable cells was dissolved in 200 μL of dimethyl sulfoxide. The cell viability (%) was determined relative to the control (cells incubated without compounds) by measuring the absorbance at 570 nm on a PowerWave Xs Bio-Tek Instruments plate spectrophotometer. The respective values of the half maximal inhibitory concentration (IC50) were calculated with the software GraphPad Prism. All the compounds were tested in at least two independent experiments, each comprising six replicates per concentration.

[2] = Stability in aqueous medium (dimethyl sulfoxide/Dulbecco's Modified Eagle Medium) by UV-Vis spectroscopy; type: physicochemical; conditions: 5% dimethyl sulfoxide/95% Dulbecco's Modified Eagle Medium; for Relative variation of the maximum absorbance of the π→π* transitions: band 292-296 nm (λmax in column head); for Relative variation of the maximum absorbance of the charge transfer bands: band 358-400 nm (λmax in column head)
Protocol: as §1

O=C(Cc1ccccc1)C1=C[CH]([Ru-]2([PH](c3ccccc3)(c3ccccc3)c3ccccc3)[n+]3ccccc3-c3cccc[n+]32)C=C1.O=S(=O)([O-])C(F)(F)F (stereo not shown) [compound 9]
Relative variation of the maximum absorbance of the π→π* transitions ([1]; time 0 h): 0.0% | Relative variation of the maximum absorbance of the charge transfer bands ([1]; time 0 h): 0.0% | Relative variation of the maximum absorbance of the π→π* transitions ([1]; time 0.25 h): 0.0% | Relative variation of the maximum absorbance of the charge transfer bands ([1]; time 0.25 h): 0.2% | Relative variation of the maximum absorbance of the π→π* transitions ([1]; time 0.5 h): −0.2% | Relative variation of the maximum absorbance of the charge transfer bands ([1]; time 0.5 h): 0.2% | Relative variation of the maximum absorbance of the π→π* transitions ([1]; time 0.75 h): −0.3% | Relative variation of the maximum absorbance of the charge transfer bands ([1]; time 0.75 h): 0.2% | Relative variation of the maximum absorbance of the π→π* transitions ([1]; time 1 h): −0.3% | Relative variation of the maximum absorbance of the charge transfer bands ([1]; time 1 h): 0.3% | Relative variation of the maximum absorbance of the π→π* transitions ([1]; time 2 h): −0.3% | Relative variation of the maximum absorbance of the charge transfer bands ([1]; time 2 h): 0.6% | Relative variation of the maximum absorbance of the π→π* transitions ([1]; time 3 h): −0.1% | Relative variation of the maximum absorbance of the charge transfer bands ([1]; time 3 h): 0.9% | Relative variation of the maximum absorbance of the π→π* transitions ([1]; time 4 h): −0.1% | Relative variation of the maximum absorbance of the charge transfer bands ([1]; time 4 h): 0.6% | Relative variation of the maximum absorbance of the π→π* transitions ([1]; time 5 h): −0.3% | Relative variation of the maximum absorbance of the charge transfer bands ([1]; time 5 h): 0.4% | Relative variation of the maximum absorbance of the π→π* transitions ([1]; time 6 h): −0.2% | Relative variation of the maximum absorbance of the charge transfer bands ([1]; time 6 h): 0.7% | Relative variation of the maximum absorbance of the π→π* transitions ([1]; time 24 h): −0.1% | Relative variation of the maximum absorbance of the charge transfer bands ([1]; time 24 h): 0.8% | IC50 range in words (MDA-MB-231 (FGFR−); Example 24): sub-micromolar range | IC50 (MDA-MB-231 (FGFR−); read-out: Cytotoxic activity expressed as IC50, Table 5, 48 h, 37° C.): 0.31 µM | Relative variation of the maximum absorbance of the π→π* transitions ([2]; time 0 h): 0.0% | Relative variation of the maximum absorbance of the charge transfer bands ([2]; time 0 h): 0.0% | Relative variation of the maximum absorbance of the π→π* transitions ([2]; time 0.25 h): −0.2% | Relative variation of the maximum absorbance of the charge transfer bands ([2]; time 0.25 h): −0.7% | Relative variation of the maximum absorbance of the π→π* transitions ([2]; time 0.5 h): −0.3% | Relative variation of the maximum absorbance of the charge transfer bands ([2]; time 0.5 h): −0.8% | Relative variation of the maximum absorbance of the π→π* transitions ([2]; time 0.75 h): −0.5% | Relative variation of the maximum absorbance of the charge transfer bands ([2]; time 0.75 h): −0.9% | Relative variation of the maximum absorbance of the π→π* transitions ([2]; time 1 h): −0.3% | Relative variation of the maximum absorbance of the charge transfer bands ([2]; time 1 h): −1.0% | Relative variation of the maximum absorbance of the π→π* transitions ([2]; time 2 h): −0.2% | Relative variation of the maximum absorbance of the charge transfer bands ([2]; time 2 h): −1.2% | Relative variation of the maximum absorbance of the π→π* transitions ([2]; time 3 h): −0.3% | Relative variation of the maximum absorbance of the charge transfer bands ([2]; time 3 h): −1.4% | Relative variation of the maximum absorbance of the π→π* transitions ([2]; time 4 h): −0.4% | Relative variation of the maximum absorbance of the charge transfer bands ([2]; time 4 h): −1.5% | Relative variation of the maximum absorbance of the π→π* transitions ([2]; time 5 h): −0.2% | Relative variation of the maximum absorbance of the charge transfer bands ([2]; time 5 h): −1.6% | Relative variation of the maximum absorbance of the π→π* transitions ([2]; time 6 h): −0.5% | Relative variation of the maximum absorbance of the charge transfer bands ([2]; time 6 h): −1.7% | Relative variation of the maximum absorbance of the π→π* transitions ([2]; time 24 h): 4.5% | Relative variation of the maximum absorbance of the charge transfer bands ([2]; time 24 h): −0.2%
